Results published in patent publication US20260138961A1, “MODULATORS OF MITOCHONDRIAL DNA REPLICATION” (Pretzel Therapeutics, Inc., priority 2022, published 2026).

Each compound was assayed against T1, wild type human POLγ (POLγA:WT) (Homo sapiens, UniProt P54098) (assay: DNA polymerization assay, wild type POLγ). Settings: 0.1 μM dNTP, read-out: WT AC50 (μM) at 0.1 μM.
T1 sequence (P54098 1-1239): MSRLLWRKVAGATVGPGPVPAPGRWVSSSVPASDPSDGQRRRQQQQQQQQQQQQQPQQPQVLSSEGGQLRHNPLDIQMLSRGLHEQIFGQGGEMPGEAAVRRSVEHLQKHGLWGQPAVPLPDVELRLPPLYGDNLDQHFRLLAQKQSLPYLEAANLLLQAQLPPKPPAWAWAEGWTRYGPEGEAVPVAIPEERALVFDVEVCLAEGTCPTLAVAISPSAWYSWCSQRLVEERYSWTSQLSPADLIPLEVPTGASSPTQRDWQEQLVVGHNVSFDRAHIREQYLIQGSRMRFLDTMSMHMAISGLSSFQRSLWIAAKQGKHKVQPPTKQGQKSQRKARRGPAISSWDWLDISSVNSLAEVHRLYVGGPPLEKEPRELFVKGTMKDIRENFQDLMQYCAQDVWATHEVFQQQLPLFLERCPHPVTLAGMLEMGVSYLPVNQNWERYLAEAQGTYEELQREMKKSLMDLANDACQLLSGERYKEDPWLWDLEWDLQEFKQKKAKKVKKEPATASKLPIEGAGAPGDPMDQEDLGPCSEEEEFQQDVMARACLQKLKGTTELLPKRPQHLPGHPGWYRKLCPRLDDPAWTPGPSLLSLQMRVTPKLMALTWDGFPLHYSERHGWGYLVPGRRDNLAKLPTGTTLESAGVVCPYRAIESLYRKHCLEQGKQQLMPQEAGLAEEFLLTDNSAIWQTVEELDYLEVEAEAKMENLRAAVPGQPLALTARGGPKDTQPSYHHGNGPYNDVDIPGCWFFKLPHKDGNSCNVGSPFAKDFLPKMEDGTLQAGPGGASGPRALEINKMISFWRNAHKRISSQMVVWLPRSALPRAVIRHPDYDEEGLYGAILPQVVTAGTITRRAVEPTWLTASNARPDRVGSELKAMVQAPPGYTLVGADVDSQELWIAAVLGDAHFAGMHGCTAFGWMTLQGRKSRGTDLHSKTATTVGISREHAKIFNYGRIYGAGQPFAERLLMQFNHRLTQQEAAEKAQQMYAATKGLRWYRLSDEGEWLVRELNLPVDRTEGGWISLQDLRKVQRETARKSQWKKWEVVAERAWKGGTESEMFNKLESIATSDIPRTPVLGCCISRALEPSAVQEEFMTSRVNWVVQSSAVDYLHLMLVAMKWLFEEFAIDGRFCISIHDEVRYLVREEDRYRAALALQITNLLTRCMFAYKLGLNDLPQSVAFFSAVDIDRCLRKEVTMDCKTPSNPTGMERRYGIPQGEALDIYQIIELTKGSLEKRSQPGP
T1 sequence (Q9UHN1 1-485 partner): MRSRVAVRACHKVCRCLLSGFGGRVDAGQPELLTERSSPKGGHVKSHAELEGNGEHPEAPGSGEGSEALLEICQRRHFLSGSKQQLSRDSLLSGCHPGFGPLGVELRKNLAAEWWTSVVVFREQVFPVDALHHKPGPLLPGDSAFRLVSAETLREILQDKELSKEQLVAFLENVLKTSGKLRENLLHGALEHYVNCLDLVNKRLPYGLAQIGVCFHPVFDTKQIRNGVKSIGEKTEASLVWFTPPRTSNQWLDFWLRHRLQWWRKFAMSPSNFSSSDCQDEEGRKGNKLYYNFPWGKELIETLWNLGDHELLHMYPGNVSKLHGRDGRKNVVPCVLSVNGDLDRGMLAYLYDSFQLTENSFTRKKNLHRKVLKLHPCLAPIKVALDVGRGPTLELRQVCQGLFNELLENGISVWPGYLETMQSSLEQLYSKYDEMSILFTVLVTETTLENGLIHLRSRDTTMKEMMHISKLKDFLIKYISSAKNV
Assay type: biochemical

Row | AC50 [µM] | SMILES
1 | > 100 | Cc1csc(-c2ccccc2NS(=O)(=O)c2cc(C)c(Cl)cc2C)n1 [Example 80, 4-chloro-2,5-dimethyl-N-(2-(4-methylthiazol-2-yl)phenyl)benzenesulfonamide]

Same assay, conditions: 100 μM dNTP, read-out: WT AC50 (μM) at 100 μM

Row | AC50 [µM] | SMILES
2 | 4 | Cc1cc(S(=O)(=O)Nc2ccc3ccn(C)c3c2)c(C)cc1Cl [Example 72, 4-chloro-2,5-dimethyl-N-(1-methyl-1H-indol-6-yl)benzenesulfonamide]
3 | 2 | Cc1nc2ccc(NS(=O)(=O)c3cc(C)c(Cl)cc3C)cc2s1 [Example 73, 4-chloro-2,5-dimethyl-N-(2-methylbenzo[d]thiazol-6-yl)benzenesulfonamide]
4 | 0.4 | Cc1cc(S(=O)(=O)Nc2cccc(-c3ncc(C4CC4)s3)c2)c(C)cc1Cl [Example 76, 4-chloro-N-(3-(5-cyclopropylthiazol-2-yl)phenyl)-2,5-dimethylbenzenesulfonamide]
5 | 0.2 | Cc1cc(S(=O)(=O)Nc2csc(-c3ccccc3)n2)c(C)cc1Cl [Example 81, 4-chloro-2,5-dimethyl-N-(2-phenylthiazol-4-yl)benzenesulfonamide]
6 | 6 | Cc1cnc(-c2ccc(NS(=O)(=O)c3cc(C)c(Cl)cc3C)cc2)s1 [Example 83, 4-chloro-2,5-dimethyl-N-(4-(5-methylthiazol-2-yl)phenyl)benzenesulfonamide]
7 | 4 | Cc1cc(S(=O)(=O)Nc2cccc(-c3ncc(CN(C)C)s3)c2)c(C)cc1Cl [Example 87, 4-chloro-N-(3-(5-((dimethylamino)methyl)thiazol-2-yl)phenyl)-2,5-dimethylbenzenesulfonamide]
8 | 0.3 | Cc1cc(S(=O)(=O)Nc2cccc(-c3ncc(CO)s3)c2)c(C)cc1Cl [Example 89, 4-chloro-N-(3-(5-(hydroxymethyl)thiazol-2-yl)phenyl)-2,5-dimethylbenzenesulfonamide]
